Measured values published in PubChem BioAssay AID1963864 (Molecular Pharmacology Branch, DTP, NCI, 2024).

Test system: KRAS PDC multicell spheroid viability
Test: Anticancer human tumor 521955-158-R6-J3-PDC patient-derived pancreatic carcinoma cell line growth inhibition [KRAS2]
Settings: for IC50: curve of first compound; for viability, T/C: stronger effect = lower value
In short: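 KRAS-mutant tumor cells were grown as spheroids with HUVEC endothelial cells and human MSCs as stroma. Targeted agents were tested alone and with KRAS pathway inhibitors. Doses started at or near clinical Cmax, or 10 microM, descending half-log.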

[1] = second compound 0.0316 µM, first compound 0.0316 µM
[2] = second compound 0.1 µM, first compound 0.000316 µM
[3] = second compound 0.1 µM, first compound 0.001 µM
[4] = second compound 0.1 µM, first compound 0.00316 µM
[5] = second compound 0.1 µM, first compound 0.01 µM
[6] = second compound 0.1 µM, first compound 0.0316 µM
[7] = second compound 0.316 µM, first compound 0.000316 µM
[8] = second compound 0.316 µM, first compound 0.001 µM
[9] = second compound 0.316 µM, first compound 0.00316 µM
[10] = second compound 0.316 µM, first compound 0.01 µM
[11] = second compound 0.316 µM, first compound 0.0316 µM
[12] = second compound 1 µM, first compound 0.000316 µM
[13] = second compound 1 µM, first compound 0.001 µM
[14] = second compound 1 µM, first compound 0.00316 µM
[15] = second compound 1 µM, first compound 0.01 µM
[16] = second compound 1 µM, first compound 0.0316 µM
[17] = second compound 3.16 µM, first compound 0.000316 µM
[18] = second compound 3.16 µM, first compound 0.001 µM
[19] = second compound 3.16 µM, first compound 0.00316 µM
[20] = second compound 3.16 µM, first compound 0.01 µM
[21] = second compound 3.16 µM, first compound 0.0316 µM
[22] = second compound 0.1 µM, first compound 0.1 µM
[23] = second compound 0.316 µM, first compound 0.1 µM
[24] = second compound 1 µM, first compound 0.1 µM
[25] = second compound 3.16 µM, first compound 0.1 µM
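Note: drug exposure lasted seven days.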
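Throughout, for viability, T/C: 100% = DMSO vehicle wells and lower means fewer viable cells.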

Question: How did the IC50 (second compound 0.0316 µM) turn out when `CC(=O)Nc1cccc(-n2c(=O)n(C3CC3)c(=O)c3c(Nc4ccc(I)cc4F)n(C)c(=O)c(C)c32)c1` + C=CC(=O)N1CCN(c2nc(OCC3CCCN3C)nc3c2CCN(c2cccc4cccc(C)c24)C3)CC1CC#N was run?
Answer: > 31.6 nM

Question: And the IC50 (second compound 0.1 µM)?
Answer: 28.4 nM

Question: And the IC50 (second compound 0.316 µM)?
Answer: 21.2 nM

Question: And the IC50 (second compound 1 µM)?
Answer: 9.67 nM

Question: What about the IC50 (second compound 3.16 µM) of the same compound?
Answer: < 0.1 nM

Question: And the viability, T/C (second compound 0.0316 µM, first compound 0.0001 µM)?
Answer: 109%

Question: What about the viability, T/C (second compound 0.0316 µM, first compound 0.000316 µM) of the same compound?
Answer: 109%

Question: And the viability, T/C (second compound 0.0316 µM, first compound 0.001 µM)?
Answer: 108%

Question: And the viability, T/C (second compound 0.0316 µM, first compound 0.00316 µM)?
Answer: 83.2%

Question: What about the viability, T/C (second compound 0.0316 µM, first compound 0.01 µM) of the same compound?
Answer: 83.9%

Question: What about the viability, T/C [1] of the same compound?
Answer: 52.8%

Question: What about the viability, T/C (second compound 0.1 µM, first compound 0.0001 µM) of the same compound?
Answer: 93.1%

Question: What about the viability, T/C [2] of the same compound?
Answer: 111%

Question: What about the viability, T/C [3] of the same compound?
Answer: 100%

Question: What about the viability, T/C [4] of the same compound?
Answer: 81.4%

Question: And the viability, T/C [5]?
Answer: 76.8%

Question: What about the viability, T/C [6] of the same compound?
Answer: 46.8%

Question: And the viability, T/C (second compound 0.316 µM, first compound 0.0001 µM)?
Answer: 89.4%

Question: And the viability, T/C [7]?
Answer: 96%

Question: And the viability, T/C [8]?
Answer: 101%

Question: And the viability, T/C [9]?
Answer: 83.9%

Question: And the viability, T/C [10]?
Answer: 66.8%

Question: What about the viability, T/C [11] of the same compound?
Answer: 41.2%

Question: And the viability, T/C (second compound 1 µM, first compound 0.0001 µM)?
Answer: 72.4%

Question: What about the viability, T/C [12] of the same compound?
Answer: 72.4%

Question: What about the viability, T/C [13] of the same compound?
Answer: 87.1%

Question: And the viability, T/C [14]?
Answer: 65.4%

Question: What about the viability, T/C [15] of the same compound?
Answer: 50.9%

Question: What about the viability, T/C [16] of the same compound?
Answer: 38%

Question: What about the viability, T/C (second compound 3.16 µM, first compound 0.0001 µM) of the same compound?
Answer: 40.3%

Question: What about the viability, T/C [17] of the same compound?
Answer: 52.7%

Question: And the viability, T/C [18]?
Answer: 24.4%

Question: And the viability, T/C [19]?
Answer: 29.1%

Question: And the viability, T/C [20]?
Answer: 2.14%

Question: What about the viability, T/C [21] of the same compound?
Answer: 8.79%

Question: How did the IC50 (second compound 0.1 µM) turn out when `CC(C)n1nc(-c2ccc3oc(N)nc3c2)c2c(N)ncnc21` + CNCc1ccccc1-c1csc(C(C)Nc2nc(C)nc3cc(OC)c(OC)cc23)c1 was run?
Answer: 77.2 nM

Question: What about the IC50 (second compound 0.316 µM) of the same compound?
Answer: 41.3 nM

Question: And the IC50 (second compound 1 µM)?
Answer: 64.8 nM

Question: What about the IC50 (second compound 3.16 µM) of the same compound?
Answer: < 0.316 nM

Question: What about the IC50 (second compound 10 µM) of the same compound?
Answer: < 0.316 nM

Question: What about the viability, T/C [2] of the same compound?
Answer: 88.1%

Question: What about the viability, T/C [3] of the same compound?
Answer: 89.9%

Question: And the viability, T/C [4]?
Answer: 81.2%

Question: What about the viability, T/C [5] of the same compound?
Answer: 71.2%

Question: What about the viability, T/C [6] of the same compound?
Answer: 63.3%

Question: And the viability, T/C [22]?
Answer: 46.2%

Question: And the viability, T/C [7]?
Answer: 82.3%

Question: And the viability, T/C [8]?
Answer: 81.1%

Question: And the viability, T/C [9]?
Answer: 74.6%

Question: And the viability, T/C [10]?
Answer: 61.1%

Question: And the viability, T/C [11]?
Answer: 54.3%

Question: What about the viability, T/C [23] of the same compound?
Answer: 42.1%

Question: What about the viability, T/C [12] of the same compound?
Answer: 78.5%

Question: And the viability, T/C [13]?
Answer: 73%

Question: And the viability, T/C [14]?
Answer: 73.6%

Question: What about the viability, T/C [15] of the same compound?
Answer: 64.2%

Question: What about the viability, T/C [16] of the same compound?
Answer: 54.6%

Question: What about the viability, T/C [24] of the same compound?
Answer: 47.2%

Question: And the viability, T/C [17]?
Answer: 1.65%

Question: And the viability, T/C [18]?
Answer: 1.07%

Question: What about the viability, T/C [19] of the same compound?
Answer: 1.66%

Question: What about the viability, T/C [20] of the same compound?
Answer: 1.02%

Question: And the viability, T/C [21]?
Answer: 1.57%

Question: And the viability, T/C [25]?
Answer: 1.6%

Question: What about the viability, T/C (second compound 10 µM, first compound 0.000316 µM) of the same compound?
Answer: 0.75%

Question: And the viability, T/C (second compound 10 µM, first compound 0.001 µM)?
Answer: 0.17%

Question: And the viability, T/C (second compound 10 µM, first compound 0.00316 µM)?
Answer: 0.16%

Question: And the viability, T/C (second compound 10 µM, first compound 0.01 µM)?
Answer: 0.15%

Question: And the viability, T/C (second compound 10 µM, first compound 0.0316 µM)?
Answer: 0.16%

Question: What about the viability, T/C (second compound 10 µM, first compound 0.1 µM) of the same compound?
Answer: 0.24%

Question: How did the IC50 (second compound 0.0316 µM) turn out when `COc1cc(Nc2ncc3c(n2)-c2ccc(Cl)cc2C(c2c(F)cccc2OC)=NC3)ccc1C(=O)O` + C=CC(=O)N1CCN(c2nc(OCC3CCCN3C)nc3c2CCN(c2cccc4cccc(C)c24)C3)CC1CC#N was run?
Answer: > 10000 nM

Question: What about the IC50 (second compound 0.1 µM) of the same compound?
Answer: > 10000 nM

Question: What about the IC50 (second compound 0.316 µM) of the same compound?
Answer: > 10000 nM

Question: What about the IC50 (second compound 1 µM) of the same compound?
Answer: > 10000 nM

Question: And the IC50 (second compound 3.16 µM)?
Answer: < 31.6 nM

Question: And the viability, T/C [1]?
Answer: 95.3%

Question: What about the viability, T/C (second compound 0.0316 µM, first compound 0.1 µM) of the same compound?
Answer: 86.4%

Question: And the viability, T/C (second compound 0.0316 µM, first compound 0.316 µM)?
Answer: 87.3%

Question: What about the viability, T/C (second compound 0.0316 µM, first compound 1 µM) of the same compound?
Answer: 88.1%

Question: And the viability, T/C (second compound 0.0316 µM, first compound 3.16 µM)?
Answer: 89.5%

Question: What about the viability, T/C (second compound 0.0316 µM, first compound 10 µM) of the same compound?
Answer: 83.6%

Question: What about the viability, T/C [6] of the same compound?
Answer: 92.2%

Question: What about the viability, T/C [22] of the same compound?
Answer: 91%

Question: What about the viability, T/C (second compound 0.1 µM, first compound 0.316 µM) of the same compound?
Answer: 87.7%

Question: What about the viability, T/C (second compound 0.1 µM, first compound 1 µM) of the same compound?
Answer: 91%

Question: And the viability, T/C (second compound 0.1 µM, first compound 3.16 µM)?
Answer: 92%

Question: What about the viability, T/C (second compound 0.1 µM, first compound 10 µM) of the same compound?
Answer: 97.9%

Question: What about the viability, T/C [11] of the same compound?
Answer: 86.2%

Question: And the viability, T/C [23]?
Answer: 87.4%

Question: And the viability, T/C (second compound 0.316 µM, first compound 0.316 µM)?
Answer: 79.8%

Question: What about the viability, T/C (second compound 0.316 µM, first compound 1 µM) of the same compound?
Answer: 78.1%

Question: What about the viability, T/C (second compound 0.316 µM, first compound 3.16 µM) of the same compound?
Answer: 85.9%

Question: What about the viability, T/C (second compound 0.316 µM, first compound 10 µM) of the same compound?
Answer: 86.4%

Question: What about the viability, T/C [16] of the same compound?
Answer: 78%

Question: And the viability, T/C [24]?
Answer: 66%

Question: And the viability, T/C (second compound 1 µM, first compound 0.316 µM)?
Answer: 82.2%

Question: What about the viability, T/C (second compound 1 µM, first compound 1 µM) of the same compound?
Answer: 76.1%

Question: What about the viability, T/C (second compound 1 µM, first compound 3.16 µM) of the same compound?
Answer: 82.7%

Question: What about the viability, T/C (second compound 1 µM, first compound 10 µM) of the same compound?
Answer: 77.3%

Question: And the viability, T/C [21]?
Answer: 25.6%

Question: And the viability, T/C [25]?
Answer: 25.7%

Question: And the viability, T/C (second compound 3.16 µM, first compound 0.316 µM)?
Answer: 18.3%

Question: And the viability, T/C (second compound 3.16 µM, first compound 1 µM)?
Answer: 53.4%

Question: What about the viability, T/C (second compound 3.16 µM, first compound 3.16 µM) of the same compound?
Answer: 59.4%

Question: And the viability, T/C (second compound 3.16 µM, first compound 10 µM)?
Answer: 29.2%
